In US20020137929A1, “1 - (3-heterocyclylphenyl) isothiourea, -isourea, -guanidine and -amidine herbicidal agents” (Intellectual Property Department, BASF Aktiengesellschaft, priority 1998, published 2002):

What was measured:
CYPSE (Flatsedge) [1] = test: Preemergence weed control under flooded paddy conditions; type: in vivo, Cyperus serotinus; conditions: rated 3-4 weeks after treatment
Procedure, shortened: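 Using flooded silt loam (water 1.5 to 3 cm deep), seeds sown in the top 0.5 cm were exposed preemergence to compound pipetted into the flood at about 0.0313 to 0.500 kg/ha. Effects were scored 0-9 by eye three to four weeks later.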

[2] = tested on: ECHORC (Watergrass (Calif.)); test: as above; type: in vivo, Echinochloa oryzoides; conditions: rated 3-4 weeks after treatment
Procedure, shortened: (§1)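 First, seeds or propagules go into the top 0.5 cm of silt loam; next, water is held 1.5 to 3 cm over the soil; then compound (50/50 acetone/water) is pipetted into it at about 0.0313 to 0.500 kg/ha; finally plants are rated visually 0-9 after three to four weeks.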

[3] = tested on: ECHORC (Watergrass (Calif.)); test: Postemergence weed control under flooded paddy conditions; type: in vivo, Echinochloa oryzoides; conditions: postemergence weeds, rated 3 to 4 weeks after treatment
Procedure, shortened: (§2)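 Injury ratings (0–9 scale covering stand, vigor, malformation, size, chlorosis and overall appearance versus control) were made three to four weeks after treatment. Test material, about 0.0313 to 0.500 kg/ha a.i. in 50/50 v/v aqueous/acetone, was added to flood water 1.5 to 3 cm deep over 3 to 5 cm weeds and 1.5 to 2.5 leaf rice.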

CYPSE (Flatsedge) [4] = test: as above; type: in vivo, Cyperus serotinus; conditions: postemergence weeds, rated 3 to 4 weeks after treatment
Procedure, shortened: as §2

GALAP (Galium) = test: Postemergence herbicidal evaluation; type: in vivo, Galium aparine; conditions: postemergence
Procedure, shortened: (§3)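 Young plants, roughly two weeks from seeding, receive the active ingredient as a sprayed dispersion (acetone/water 50/50, 0.5% TWEEN 20) at 40 psi. Doses span about 0.0156 to 0.500 kg/ha. A visual score from 0 to 9 compares treated with control plants four to five weeks on.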

CYPIR (Rice Flatsedge) = test: Preemergence weed control under flooded paddy conditions; type: in vivo, Cyperus iria; conditions: rated 3-4 weeks after treatment
Procedure, shortened: as §1

ZEAMX (Corn, Field) [5] = test: Preemergence herbicidal evaluation; type: in vivo, Zea mays; conditions: rated 4-5 weeks after treatment; for ZEAMX rating: preemergence, 0-9 scale
Procedure, shortened: (§4)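 Herbicidal effect scored visually, 0-9, at 4 to 5 weeks against a control; compound applied preemergence by aqueous acetone spray to seeded soil at about 0.0156 to 0.500 kg/ha.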

[6] = tested on: TRZAWR (Wheat, Winter, cv Riband); test: Preemergence herbicidal evaluation; type: in vivo, Triticum aestivum; conditions: rated 4-5 weeks after treatment; for TRZAWR rating: preemergence, 0-9 scale
Procedure, shortened: as §4

AMBEL (Ragweed, Common) = test: Preemergence herbicidal evaluation; type: in vivo, Ambrosia artemisifolia; conditions: rated 4-5 weeks after treatment; for AMBEL rating: preemergence, 0-9 scale
Procedure, shortened: as §4

[7] = tested on: IPOHE (Morningglory, Ivyleaf); test: Preemergence herbicidal evaluation; type: in vivo, Ipomoea hederacea; conditions: rated 4-5 weeks after treatment; for IPOHE rating: preemergence, 0-9 scale
Procedure, shortened: as §4

ORYSAT (Rice, Tebonnet) = test: Preemergence herbicidal evaluation; type: in vivo, Oryza sativa, (L.) Tebonnet; conditions: rated 4-5 weeks after treatment; for ORYSAT rating: preemergence, 0-9 scale
Procedure, shortened: as §4

CASOB (Sicklepod) = test: Postemergence herbicidal evaluation; type: in vivo, Cassia obtusifolia; conditions: postemergence
Procedure, shortened: as §3

[8] = tested on: CHEAL (Lambsquarters, Common); test: Preemergence herbicidal evaluation; type: in vivo, Chenopodium album; conditions: rated 4-5 weeks after treatment; for CHEAL rating: preemergence, 0-9 scale
Procedure, shortened: as §4

ZEAMX (Corn, Field) [9] = test: Postemergence herbicidal evaluation; type: in vivo, Zea mays; conditions: postemergence
Procedure, shortened: as §3

C#CCOC(=O)CC1SC(=Nc2cc(-n3c(=O)cc(C(F)(F)F)n(C)c3=O)c(F)cc2Cl)N(CC=C)C1=O (stereo not shown) [Compound 67, 2-Propynyl 3-allyl-2-{{2-chloro-5-[3,6-dihydro-3-methyl-2,6-dioxo-4-(trifluoromethyl)-1(2H)-pyrimidinyl]-4-fluorophenyl}imino}-4-oxo-5-thiazolidineacetate]
1.0: Preemergence herbicidal rating ZEAMX (ZEAMX (Corn, Field) [5]; rate 0.0625 kg/ha) | Preemergence herbicidal rating ZEAMX (ZEAMX (Corn, Field) [5]; rate 0.1250 kg/ha) | Preemergence herbicidal rating ZEAMX (ZEAMX (Corn, Field) [5]; rate 0.2500 kg/ha) | Preemergence herbicidal rating TRZAWR ([6]; rate 0.1250 kg/ha) | Preemergence herbicidal rating TRZAWR ([6]; rate 0.2500 kg/ha) | Preemergence herbicidal rating ORYSAT (ORYSAT (Rice, Tebonnet); rate 0.1250 kg/ha) | Preemergence herbicidal rating ORYSAT (ORYSAT (Rice, Tebonnet); rate 0.2500 kg/ha)
0.0: CYPSE herbicidal effect rating (CYPSE (Flatsedge) [1]; 0.0313 kg/ha) | ECHORC herbicidal effect rating ([2]; 0.0313 kg/ha) | Herbicidal rating ECHORC ([3]; Rate 0.0313 kg/ha) | Herbicidal rating CYPSE (CYPSE (Flatsedge) [4]; Rate 0.0313 kg/ha) | Preemergence herbicidal rating ZEAMX (ZEAMX (Corn, Field) [5]; rate 0.0156 kg/ha) | Preemergence herbicidal rating ZEAMX (ZEAMX (Corn, Field) [5]; rate 0.0313 kg/ha) | Preemergence herbicidal rating TRZAWR ([6]; rate 0.0156 kg/ha) | Preemergence herbicidal rating TRZAWR ([6]; rate 0.0313 kg/ha) | Preemergence herbicidal rating TRZAWR ([6]; rate 0.0625 kg/ha) | Preemergence herbicidal rating AMBEL (AMBEL (Ragweed, Common); rate 0.0156 kg/ha) | Preemergence herbicidal rating AMBEL (AMBEL (Ragweed, Common); rate 0.0313 kg/ha) | Preemergence herbicidal rating IPOHE ([7]; rate 0.0156 kg/ha) | Preemergence herbicidal rating IPOHE ([7]; rate 0.0313 kg/ha) | Preemergence herbicidal rating ORYSAT (ORYSAT (Rice, Tebonnet); rate 0.0156 kg/ha) | Preemergence herbicidal rating ORYSAT (ORYSAT (Rice, Tebonnet); rate 0.0313 kg/ha) | Preemergence herbicidal rating ORYSAT (ORYSAT (Rice, Tebonnet); rate 0.0625 kg/ha) | CASOB herbicidal rating (CASOB (Sicklepod); rate 0.0158 kg/ha)
7.0: Preemergence herbicidal rating AMBEL (AMBEL (Ragweed, Common); rate 0.1250 kg/ha) | Preemergence herbicidal rating AMBEL (AMBEL (Ragweed, Common); rate 0.2500 kg/ha)
6.0: GALAP herbicidal rating (GALAP (Galium); rate 0.0315 kg/ha) | Preemergence herbicidal rating IPOHE ([7]; rate 0.2500 kg/ha)
4.0: ECHORC herbicidal effect rating ([2]; 0.0625 kg/ha) | Herbicidal rating ECHORC ([3]; Rate 0.0625 kg/ha)
3.0: CYPSE herbicidal effect rating (CYPSE (Flatsedge) [1]; 0.0625 kg/ha) | CYPSE herbicidal effect rating (CYPSE (Flatsedge) [1]; 0.1250 kg/ha) | CYPSE herbicidal effect rating (CYPSE (Flatsedge) [1]; 0.2500 kg/ha) | Herbicidal rating CYPSE (CYPSE (Flatsedge) [4]; Rate 0.0625 kg/ha) | Herbicidal rating CYPSE (CYPSE (Flatsedge) [4]; Rate 0.1250 kg/ha) | Herbicidal rating CYPSE (CYPSE (Flatsedge) [4]; Rate 0.2500 kg/ha) | Preemergence herbicidal rating AMBEL (AMBEL (Ragweed, Common); rate 0.0625 kg/ha) | Preemergence herbicidal rating IPOHE ([7]; rate 0.1250 kg/ha) | CASOB herbicidal rating (CASOB (Sicklepod); rate 0.0630 kg/ha)
8.0: CYPIR herbicidal effect rating (CYPIR (Rice Flatsedge); 0.2500 kg/ha) | ZEAMX herbicidal rating (ZEAMX (Corn, Field) [9]; rate 0.0315 kg/ha) | ZEAMX herbicidal rating (ZEAMX (Corn, Field) [9]; rate 0.0630 kg/ha)
2.9: GALAP herbicidal rating (GALAP (Galium); rate 0.0158 kg/ha)
2.0: Preemergence herbicidal rating IPOHE ([7]; rate 0.0625 kg/ha) | CASOB herbicidal rating (CASOB (Sicklepod); rate 0.0315 kg/ha) | Preemergence herbicidal rating CHEAL ([8]; rate 0.0156 kg/ha)
5.0: ECHORC herbicidal effect rating ([2]; 0.1250 kg/ha) | ECHORC herbicidal effect rating ([2]; 0.2500 kg/ha) | Herbicidal rating ECHORC ([3]; Rate 0.1250 kg/ha) | Herbicidal rating ECHORC ([3]; Rate 0.2500 kg/ha) | GALAP herbicidal rating (GALAP (Galium); rate 0.0630 kg/ha) | CYPIR herbicidal effect rating (CYPIR (Rice Flatsedge); 0.0313 kg/ha) | CYPIR herbicidal effect rating (CYPIR (Rice Flatsedge); 0.0625 kg/ha) | CYPIR herbicidal effect rating (CYPIR (Rice Flatsedge); 0.1250 kg/ha)
9.0: Preemergence herbicidal rating CHEAL ([8]; rate 0.0313 kg/ha) | Preemergence herbicidal rating CHEAL ([8]; rate 0.0625 kg/ha) | Preemergence herbicidal rating CHEAL ([8]; rate 0.1250 kg/ha) | Preemergence herbicidal rating CHEAL ([8]; rate 0.2500 kg/ha)
7.5: ZEAMX herbicidal rating (ZEAMX (Corn, Field) [9]; rate 0.0158 kg/ha)

CN1C(=O)C(CC(=O)OCCF)SC1=Nc1cc(-n2c(=O)cc(C(F)(F)F)n(C)c2=O)c(F)cc1Cl (stereo not shown) [Compound 93, 2-Fluoroethyl 2-{{2-chloro-5-[3,6-dihydro-3-methyl-2,6-dioxo-4-(trifluoromethyl)-1(2H)-pyrimidinyl]-4-fluorophenyl}imino}-3-methyl-4-oxo-5-thiazolidineacetate]
9.0: CYPSE herbicidal effect rating (CYPSE (Flatsedge) [1]; 0.2500 kg/ha) | Herbicidal rating CYPSE (CYPSE (Flatsedge) [4]; Rate 0.2500 kg/ha) | AMBEL rating (AMBEL (Ragweed, Common); 0.1250 kg/ha) | AMBEL rating (AMBEL (Ragweed, Common); 0.2500 kg/ha) | IPOHE rating ([7]; 0.1250 kg/ha) | IPOHE rating ([7]; 0.2500 kg/ha) | CHEAL rating ([8]; 0.0625 kg/ha) | CHEAL rating ([8]; 0.1250 kg/ha) | CHEAL rating ([8]; 0.2500 kg/ha)
6.0: GALAP herbicidal rating (GALAP (Galium); rate 0.0630 kg/ha) | ZEAMX rating (ZEAMX (Corn, Field) [5]; 0.2500 kg/ha)
3.0: ECHORC herbicidal effect rating ([2]; 0.0625 kg/ha) | Herbicidal rating ECHORC ([3]; Rate 0.0625 kg/ha) | CHEAL rating ([8]; 0.0313 kg/ha)
1.0: ZEAMX rating (ZEAMX (Corn, Field) [5]; 0.1250 kg/ha) | CASOB herbicidal rating (CASOB (Sicklepod); rate 0.0315 kg/ha)
4.0: ECHORC herbicidal effect rating ([2]; 0.1250 kg/ha) | Herbicidal rating ECHORC ([3]; Rate 0.1250 kg/ha) | ORYSAT rating (ORYSAT (Rice, Tebonnet); 0.2500 kg/ha)
0.0: CYPSE herbicidal effect rating (CYPSE (Flatsedge) [1]; 0.0313 kg/ha) | CYPSE herbicidal effect rating (CYPSE (Flatsedge) [1]; 0.0625 kg/ha) | ECHORC herbicidal effect rating ([2]; 0.0313 kg/ha) | Herbicidal rating ECHORC ([3]; Rate 0.0313 kg/ha) | Herbicidal rating CYPSE (CYPSE (Flatsedge) [4]; Rate 0.0313 kg/ha) | Herbicidal rating CYPSE (CYPSE (Flatsedge) [4]; Rate 0.0625 kg/ha) | GALAP herbicidal rating (GALAP (Galium); rate 0.0158 kg/ha) | CYPIR herbicidal effect rating (CYPIR (Rice Flatsedge); 0.0313 kg/ha) | CYPIR herbicidal effect rating (CYPIR (Rice Flatsedge); 0.0625 kg/ha) | CYPIR herbicidal effect rating (CYPIR (Rice Flatsedge); 0.1250 kg/ha) | CYPIR herbicidal effect rating (CYPIR (Rice Flatsedge); 0.2500 kg/ha) | ZEAMX rating (ZEAMX (Corn, Field) [5]; 0.0313 kg/ha) | ZEAMX rating (ZEAMX (Corn, Field) [5]; 0.0625 kg/ha) | TRZAWR rating ([6]; 0.0313 kg/ha) | TRZAWR rating ([6]; 0.0625 kg/ha) | AMBEL rating (AMBEL (Ragweed, Common); 0.0313 kg/ha) | AMBEL rating (AMBEL (Ragweed, Common); 0.0625 kg/ha) | IPOHE rating ([7]; 0.0313 kg/ha) | ORYSAT rating (ORYSAT (Rice, Tebonnet); 0.0313 kg/ha) | ORYSAT rating (ORYSAT (Rice, Tebonnet); 0.0625 kg/ha) | CASOB herbicidal rating (CASOB (Sicklepod); rate 0.0158 kg/ha)
8.0: ZEAMX herbicidal rating (ZEAMX (Corn, Field) [9]; rate 0.0630 kg/ha)
2.0: TRZAWR rating ([6]; 0.1250 kg/ha) | IPOHE rating ([7]; 0.0625 kg/ha) | ORYSAT rating (ORYSAT (Rice, Tebonnet); 0.1250 kg/ha) | CASOB herbicidal rating (CASOB (Sicklepod); rate 0.0630 kg/ha)
5.0: CYPSE herbicidal effect rating (CYPSE (Flatsedge) [1]; 0.1250 kg/ha) | Herbicidal rating CYPSE (CYPSE (Flatsedge) [4]; Rate 0.1250 kg/ha) | GALAP herbicidal rating (GALAP (Galium); rate 0.0315 kg/ha)
7.5: ZEAMX herbicidal rating (ZEAMX (Corn, Field) [9]; rate 0.0158 kg/ha) | ZEAMX herbicidal rating (ZEAMX (Corn, Field) [9]; rate 0.0315 kg/ha)
7.0: ECHORC herbicidal effect rating ([2]; 0.2500 kg/ha) | Herbicidal rating ECHORC ([3]; Rate 0.2500 kg/ha) | TRZAWR rating ([6]; 0.2500 kg/ha)
